The values that follow come from PMC6234866, “High-Affinity Chemotaxis to Histamine Mediated by the TlpQ Chemoreceptor of the Human Pathogen Pseudomonas aeruginosa” (mBio, 2018).

Assay [1] concerns the target T1, McpU-LBD (Pseudomonas putida, UniProt Q88NI1). Kind of assay: Thermal shift assay of McpU-LBD. In kind it is binding, Pseudomonas putida KT2440. To be noted: 10 µM McpU-LBD, Biolog plate PM3B; Tm without ligand 46.5°C. As to the method: Thermal shift experiments were conducted as reported in reference in [57]. McpU-LBD in polybuffer {5 mM Tris, 5 mM PIPES [piperazine-N,N′-bis(2-ethanesulfonic acid)], 5 mM MES [morpholineethanesulfonic acid], 10% glycerol [vol/vol], 150 mM NaCl, pH 7.0} was used at a final concentration of 10 µM. Biolog (Hayward, CA, USA) compound arrays PM3B (nitrogen sources), PM4A (phosphorous and sulfur sources), and PM5 (nutrient supplements) were used for screening. The compositions of these arrays are provided at http://208.106.130.253/pdf/pm_lit/PM1-PM10.pdf.

Assay [2] has as its target TlpQ-LBD. The assay can be described thus: biochemical. In kind it is binding, Pseudomonas aeruginosa PAO1. The conditions noted are these: ratio of ITC KD values.
Assay [3] addresses TlpQ-LBD (Pseudomonas aeruginosa, UniProt Q9I0I4). Kind of assay: biochemical. The class given is binding, Pseudomonas aeruginosa PAO1.
Assay [4] deals with T1, McpU-LBD. The assay can be described thus: ITC binding of ligands to McpU-LBD. Details: species or system Pseudomonas putida KT2440. The conditions noted are these: for ΔH McpU-LBD / Kd: 25°C; for Kd: polybuffer pH 7.0.
The target in assay [5] is T1, McpU-LBD. The conditions noted are these: read-out: KD McpU-LBD; ITC; reported previously; cited from earlier work.
Assay [6] has as its system KT2440. The assay can be described thus: Growth with ligand as sole carbon or nitrogen source, KT2440. To be noted: KT2440, minimal medium, 5 mM ligand.
Assay [7] has as its system PAO1. The assay can be described thus: Growth with ligand as sole carbon or nitrogen source, PAO1. The conditions noted are these: PAO1, minimal medium, 5 mM ligand.
Assay [8] deals with PctA-LBD (Pseudomonas aeruginosa, UniProt G3XD24). The conditions noted are these: for binding to PctA-LBD (in words): direct microcalorimetric titration.
Assay [9] relates to P. putida KT2440.
In assay [10] the test system is Ralstonia pseudosolanacearum Ps29. To be noted: Ps29, minimal medium, 5 mM.
Assay [11] shares this test system. The conditions noted are these: 5 mM histamine, strain Ps29.
For assay [12], the system named is P. aeruginosa PA14 mutant defective in pctA, pctC and tlpQ. To be noted: deletion of pctA, tlpQ homologues. As to the method: (§1) Two protocols were used that differed in the ways the cells were counted. The first protocol was used to generate the data shown Fig. S6, whereas the second protocol was used for the remaining chemotaxis experiments. In the first protocol, overnight cultures of strains were diluted to an OD660 of 0.05 in MS medium ([58]) supplemented with 6 mg·liter^−1 Fe citrate, trace elements, and 15 mM glucose and grown at 37°C. At an OD660 of 0.4, the cultures were centrifuged at 1,700 × g for 5 min and the pellet was washed twice with chemotaxis buffer (50 mM potassium phosphate, […], 0.05% [vol/vol] glycerol, pH 7.0). The cells were resuspended in this buffer and adjusted to an OD660 of 0.1, and 230-µl aliquots were placed into 96-well plates. Capillary tubes (P1424, Microcaps; Drummond Scientific) were heat sealed at one end and filled with chemotaxis buffer or chemotaxis chemoattractant solution. The capillaries were then immersed in bacterial suspensions at their open ends. After 30 min at room temperature, the capillaries were removed and rinsed with sterile water, and the content was expelled into 1 ml of M9 medium. Serial dilutions were plated on LB medium, and the CFU were determined. In all cases, the data were corrected to the number of cells that swam into the buffer-containing capillaries. In the second protocol, we used computer-assisted image analysis as reported previously ([59]). Briefly, capillaries were filled with chemoattractant solutions in 10 mM HEPES buffer (pH 7.0) containing 1% (wt/vol) agarose and heat sealed on one side. The cells were grown in 2× yeast extract-tryptone (YT), medium and 10-μl aliquots of the cell suspension were placed onto a microscope slide within the U-shaped spacer, which was then covered by a coverslip. The chemoattractant-filled capillaries were introduced into the chemotaxis chamber, and cell movement was videotaped, with images taken at the beginning and at different time intervals. If not otherwise stated, the contact time between the cell and the chemoattractant was 2 min. The Bioinformatics Assistant Icy Sport detector software ([60]) was used to determine the number of cells per image. The magnitude of chemotaxis was expressed as the number of cells after a given time over the number of cells at the beginning of the experiment. The data shown are the means and standard deviations from three experiments conducted in triplicates.

In assay [13] the test system is P. aeruginosa PAO1 mutant strains. As to the method: as §1
Assay [14] concerns P. aeruginosa strains 233, 401 and PA14. To be noted: 5 mM histamine; all analyzed P. aeruginosa strains. As to the method:
as §1

Assay [15] has as its system P. aeruginosa PAO1. The conditions noted are these: PAO1, capillary assay. As to the method: as §1
For assay [16], the target named is PctC-LBD (Pseudomonas aeruginosa, UniProt Q9HW93). Kind of assay: Microcalorimetric binding studies with PctC-LBD. More on the design: species or system Pseudomonas aeruginosa PAO1. The conditions noted are these: direct microcalorimetric titration.

Where two headings read alike, the source gives them in different places.

Chain of TlpQ-LBD (Pseudomonas aeruginosa, UniProt Q9I0I4) (Q9I0I4 33-359): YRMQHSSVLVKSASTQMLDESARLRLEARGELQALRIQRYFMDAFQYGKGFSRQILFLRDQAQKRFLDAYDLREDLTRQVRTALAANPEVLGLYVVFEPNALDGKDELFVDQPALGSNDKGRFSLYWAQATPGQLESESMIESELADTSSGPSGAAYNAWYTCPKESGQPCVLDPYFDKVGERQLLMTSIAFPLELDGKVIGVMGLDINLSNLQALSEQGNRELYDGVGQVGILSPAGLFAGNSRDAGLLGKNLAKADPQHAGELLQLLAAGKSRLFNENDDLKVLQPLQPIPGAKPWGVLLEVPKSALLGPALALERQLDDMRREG
Chain of PctA-LBD (G3XD24 32-276): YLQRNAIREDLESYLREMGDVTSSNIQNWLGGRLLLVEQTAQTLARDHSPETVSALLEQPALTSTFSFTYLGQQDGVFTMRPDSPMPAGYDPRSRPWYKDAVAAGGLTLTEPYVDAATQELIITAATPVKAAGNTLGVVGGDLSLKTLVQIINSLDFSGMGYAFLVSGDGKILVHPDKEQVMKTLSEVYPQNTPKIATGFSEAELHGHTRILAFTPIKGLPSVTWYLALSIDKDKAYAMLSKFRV
T1 sequence (Q88NI1 50-284): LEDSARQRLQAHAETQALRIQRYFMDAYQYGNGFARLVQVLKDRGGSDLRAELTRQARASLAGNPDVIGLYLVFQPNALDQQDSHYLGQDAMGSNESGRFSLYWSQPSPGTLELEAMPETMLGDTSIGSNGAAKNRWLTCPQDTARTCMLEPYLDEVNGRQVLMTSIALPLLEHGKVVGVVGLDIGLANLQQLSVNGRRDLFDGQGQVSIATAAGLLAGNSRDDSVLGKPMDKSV
Chain of PctC-LBD (Q9HW93 32-279): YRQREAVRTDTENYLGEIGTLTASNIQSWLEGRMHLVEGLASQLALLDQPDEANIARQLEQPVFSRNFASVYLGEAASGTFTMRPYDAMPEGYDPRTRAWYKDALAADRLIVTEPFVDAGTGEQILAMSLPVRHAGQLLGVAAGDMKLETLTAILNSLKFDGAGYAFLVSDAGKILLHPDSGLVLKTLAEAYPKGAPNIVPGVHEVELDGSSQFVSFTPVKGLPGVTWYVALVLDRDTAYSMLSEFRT

For `NCCCCN=C(N)N` [Agmatine], in assay [1], the “Tm increase of McpU-LBD” value is “greater than 2 °C”. In addition, in assay [2], the “KD McpU-LBD/KD TlpQ-LBD” value is recorded as 3. In [3], this compound had a Kd of 150 ± 9 nM. Further, in [3] (ITC, 25°C), the “ΔH TlpQ-LBD” value was -5.4 ± 0.1 kcal/mol. Moreover, in assay [4], the “binding to McpU-LBD (in words)” value is recorded as “Very tight binding”, the “ΔH McpU-LBD” value is -14.5 ± 0.2 kcal/mol and the Kd is 480 ± 20 nM.

For `NCCCCCN` [Cadaverine], in [2], the “KD McpU-LBD/KD TlpQ-LBD” value was 147. Moreover, the results for the Kd in assay [3] and in assay [5] were 150 ± 4 nM and 22000 ± 2000 nM, respectively. Moreover, the “ΔH TlpQ-LBD” value in assay [3] (ITC, 25°C) was -6.0 ± 0.1 kcal/mol. Further, the “ΔH McpU-LBD” value in assay [4] is -15.5 ± 0.5 kcal/mol.

Take `NCCN` [Ethylenediamine]: the “growth as sole carbon or nitrogen source” value in assay [6] and in assay [7] was “either not or were poor growth substrates” throughout. Besides, in [1], the “Tm increase of McpU-LBD” value is “greater than 2 °C”. For the same compound, the “KD McpU-LBD/KD TlpQ-LBD” value in assay [2] was 23. Also, the “binding to TlpQ-LBD (in words)” value in assay [3] (ITC) is on record as “slightly weaker”. Further, the “ΔH TlpQ-LBD” value in assay [3] (ITC, 25°C) is -6.3 ± 0.6 kcal/mol. Besides, the dissociation constant Kd stood at 1710 nM in [3] (ITC, 25°C, polybuffer pH 7.0, read-out: KD TlpQ-LBD) and 39000 ± 4000 nM in [4]. Further, the “binding to McpU-LBD (in words)” value in assay [4] was “much lower affinities”. The “ΔH McpU-LBD” value in [4] is -9.7 ± 0.5 kcal/mol.

In the case of `NCCc1c[nH]cn1` [Histamine], the “growth as sole carbon or nitrogen source” value in assay [6] and in [7] was “permitted the growth” throughout. Besides, the “Tm increase of McpU-LBD” value in [1] is “greater than 2 °C”. For the same compound, in assay [8] (PctA-LBD titrated with L-Ala with and without 20 mM histamine), the “binding to PctA-LBD, competition assay (in words)” value was “does not bind directly”. In addition, in assay [8], the “binding to PctA-LBD (in words)” value is reported as “did not bind”. Also, the “KD McpU-LBD/KD TlpQ-LBD” value in [2] turned out to be 41. In addition, the Kd in assay [3] is 639 ± 27 nM; in [4], 26000 ± 2000 nM. Besides, the “ΔH TlpQ-LBD” value in assay [3] (ITC, 25°C) was -9.1 ± 0.3 kcal/mol. Further, the “concentration at onset of chemotactic response” value in [9] (KT2440, capillary assay) was determined as 5 µM; in assay [15], 500 nM. Besides, the “chemotaxis (in words)” value in assay [9] (KT2440, histamine dose response) is given as “only moderate chemotaxis”; in [11] it was “not attracted”; in assay [14], “significant chemotaxis”; in assay [15] (2 min), “much stronger”. The “binding to McpU-LBD (in words)” value in assay [4] is given as “much lower affinities”. Moreover, the “ΔH McpU-LBD” value in assay [4] is -2.6 ± 0.3 kcal/mol. The “growth as sole carbon and nitrogen source” value in assay [10] is on record as “no significant growth”. In assay [12], the “chemotaxis of PA14 triple mutant” value is recorded as “abolished histamine chemotaxis”. In assay [13] (500 µM histamine, 2.5 min), the “chemotaxis of PCT2Q complemented with pctA, pctC or tlpQ” value was “significant chemotaxis”. Further, in assay [13] (500 µM histamine, exposure time 1 min), the “chemotaxis of PCT2Q complemented with pctC or tlpQ in trans” value is on record as “recovered histamine chemotaxis”. Besides, the “chemotaxis of strain PCT2 (pctA, pctB, pctC deleted)” value in [13] (5 mM histamine) is recorded as “abolished chemotaxis”. In addition, the “concentration range of significant chemotaxis of PCT2 mutant” value in assay [13] (dose response) was 0.5 µM and 500 µM. Also, the “chemotaxis of PCT2Q mutant (pctABC and tlpQ deleted)” value in assay [13] (entire concentration range 50 nM to 50 mM) is reported as “devoid of histamine chemotaxis”. Also, in [16], the “binding to PctC-LBD (in words)” value is “did not bind”.

Take `C[C@H](N)C(=O)O` [L-Ala, L-alanine, reference compound]: in [8], the “binding to PctA-LBD (in words)” value is “bound”.

Turning to `NC(=O)CC[C@H](N)C(=O)O` [L-Gln, reference compound], the “binding to PctC-LBD (in words)” value in assay [16] is listed as “bound”.

Consider `NCCCCN` [Putrescine], for which the “KD McpU-LBD/KD TlpQ-LBD” value in [2] is 15. Moreover, the results for the equilibrium dissociation constant (Kd) in assay [3] and in [5] were 134 ± 12 nM and 2000 ± 100 nM, respectively. For the same compound, the “ΔH TlpQ-LBD” value in assay [3] (ITC, 25°C) was -6.8 ± 0.3 kcal/mol. In assay [4], the “ΔH McpU-LBD” value is -15 ± 0.5 kcal/mol.

For `NCCCCNCCCN` [Spermidine], the “growth as sole carbon or nitrogen source” value in [6] and in [7] was “either not or were poor growth substrates” throughout. Moreover, in [2], the “KD McpU-LBD/KD TlpQ-LBD” value is 80. For the same compound, the Kd in [3] was 56 ± 4 nM; in assay [5], 4500 ± 400 nM. Further, the “ΔH TlpQ-LBD” value in assay [3] (ITC, 25°C) is -4.6 ± 0.4 kcal/mol. In addition, the “ΔH McpU-LBD” value in assay [4] is -4.3 ± 0.3 kcal/mol.

`C=C` [ethylene]: the “binding to TlpQ-LBD (in words)” value in assay [3] (ITC) is listed as “did not show any binding”.
